# Measured values published in US9763942B2, “Serine/threonine kinase inhibitors” (Array BioPharma Inc., priority 2013, dated 2017).
# Target: T1, human ERK-2 (Mitogen Activated Kinase 1) (Homo sapiens, UniProt P28482)
# T1 construct: n-terminal 6-His fusion protein in E. coli and corresponding to aa 8-360; 6-His (N); made in house; host or cells: E. coli
# Experiment: ERK-2 Enzymatic Assay
# Format: biochemical
# Conditions: ERK-2 enzymatic assay; read-out: IC50
# From the text: Table 1 contains representative data for Examples disclosed herein.
# T1 sequence (P28482 8-360): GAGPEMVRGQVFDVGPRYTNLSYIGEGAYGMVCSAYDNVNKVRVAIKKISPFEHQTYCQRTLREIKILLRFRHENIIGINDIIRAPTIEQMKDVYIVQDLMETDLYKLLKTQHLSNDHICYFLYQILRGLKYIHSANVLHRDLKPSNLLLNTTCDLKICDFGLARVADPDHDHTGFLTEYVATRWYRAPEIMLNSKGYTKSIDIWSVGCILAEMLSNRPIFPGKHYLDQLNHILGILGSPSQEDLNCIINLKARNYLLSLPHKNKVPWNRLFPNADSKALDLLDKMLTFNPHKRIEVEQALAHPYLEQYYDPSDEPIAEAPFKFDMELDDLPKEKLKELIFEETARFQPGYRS
row,IC50 [µM],Compound
1,< 0.1,"COc1ccc(Cn2nnc3cc(-c4ccnc(NCC(C)(C)O)n4)ccc32)cc1F [Example 18, 1-((4-(1-(3-fluoro-4-methoxybenzyl)-1H-benzo[d][1,2,3]triazol-5-yl)pyrimidin-2-yl)amino)-2-methylpropan-2-ol]"
2,< 0.1,"Cn1nccc1Nc1nccc(-c2ccc3c(c2)nnn3Cc2ccc(OC(F)F)cc2)n1 [Example 51, 4-(1-(4-(difluoromethoxy)benzyl)-1H-benzo[d][1,2,3]triazol-5-yl)-N-(1-methyl-1H-pyrazol-5-yl)pyrimidin-2-amine]"
3,< 0.1,"Cn1nccc1Nc1nccc(-c2ccc3c(c2)nnn3CC2CCCCO2)n1 (stereo not shown) [Example 101, N-(1-methyl-1H-pyrazol-5-yl)-4-(1-((tetrahydro-2H-pyran-2-yl)methyl)-1H-benzoyl[d][1,2,3]triazol-5-yl)pyrimidin-2-amine]"
4,< 0.1,"Cn1nccc1Nc1nccc(-c2ccc3c(c2)nnn3[C@H](CO)c2ccc(Cl)c(F)c2)n1 [Example 93, (S)-2-(4-chloro-3-fluorophenyl)-2-(5-(2-((1-methyl-1H--pyrazol-5-yl)amino)pyrimidin-4-yl)-1H-benzo[d][1,2,3]triazol-1-yl)ethanol]"
5,< 0.1,"CN1CC(n2nnc3cc(-c4ccnc(Nc5cnn(C)c5)n4)ccc32)[C@H](c2ccc(F)cc2F)C1 (stereo partly drawn) [Example 73, 4-(1-((3S,4R)-4-(2,4-difluorophenyl)-1-methylpyrrolidin-3-yl)-1H-benzo[d][1,2,3]triazol-5-yl)-N(1-methyl-1H-pyrazol-4-yl)pyrimidin-2-amine]"
6,< 0.1,"Cn1nccc1Nc1nccc(-c2ccc3c(c2)nnn3CCc2ccccc2Cl)n1 [Example 49, 4-(1-(2-chlorophenethyl)-1H-benzo-[d][1,2,3]triazol-5-yl)-N-(1-methyl-1H-pyrazol-5-yl)pyrimidin-2-amine]"
7,< 0.1,"COc1ccc(Cn2nnc3cc(-c4ccnc(NC[C@@H](O)CO)n4)ccc32)cc1F [Example 20, (R)-3-((4-(1-(3-fluoro-4-methoxybenzyl)-1H-benzo[d][1,2,3]triazol-5-yl)pyrimidin-2-yl)amino)propane-1,2-diol]"
8,< 0.1,"Cn1nccc1Nc1nccc(-c2ccc3c(c2)nnn3CC(F)F)n1 [Example 37, 4-(1-(2,2-difluoroethyl)-1H-benzo[d][1,2,3]triazol-5-yl)-N-(1-methyl-1H-pyrazol-5-yl)pyrimidin-2-amine]"
9,< 0.1,"COc1ccc(Cn2nnc3cc(-c4ccnc(N[C@H]5CCOC[C@H]5F)n4)ccc32)cc1F [Example 7, 4-(1-(3-fluoro-4-methoxybenzyl)-1H-benzo[d][1,2,3]triazol-5-yl)-N-((3S,4S)-3-fluorotetrahydro-2H-pyran-4-yl)pyrimidin-2-amine]"
10,< 0.1,"CCC(C)Cn1nnc2cc(-c3ccnc(N[C@@H](C)CO)n3)ccc21 (stereo partly drawn) [Example 98, (2S)2-((4-(1-(2-methylbutyl)-1H-benzo[d][1,2,3]triazol-5-yl)pyrimidin-2-yl)amino)propan-1-ol]"
11,< 0.1,"CC(C)Cn1nnc2cc(-c3ccnc(Nc4cnn(C)n4)n3)ccc21 [Example 99, 4-(1-isobutyl-1H-benzo[d][1,2,3]triazol-5-yl)-N-(2-methyl-2H-1,2,3-triazol-4-yl)pyrimidin-2-amine]"
12,< 0.1,"Fc1cc(Cn2nnc3cc(-c4ccnc(NC5CCOCC5)n4)ccc32)ccc1Cl [Example 109, 4-(1-(4-chloro-3-fluorobenzyl)-1H-benzo[d][1,2,3]triazol-5-yl)-N-(tetrahydro-2H-pyran-4-yl)pyrimidin-2-amine]"
13,< 0.1,"CC(C)Cn1nnc2cc(-c3ccnc(Nc4ccnn4C)n3)ccc21 [Example 38, 4-(1-isobutyl-1H-benzo[d][1,2,3]triazol-5-yl)-N-(1-methyl-1H-pyrazol-5-yl)pyrimidin-2-amine]"
14,< 0.1,"CCC(CC)Cn1nnc2cc(-c3ccnc(Nc4ccnn4C)n3)ccc21 [Example 28, 4-(1-(2-ethylbutyl)-1H-benzo[d][1,2,3]triazol-5-yl)-N(1-methyl-1H-pyrazol-5-yl)pyrimidin-2-amine]"
15,< 0.1,"COc1ccc(Cn2nnc3cc(-c4ccnc(Nc5nnn(C)n5)n4)ccc32)cc1F [Example 26, 4-(1-(3-fluoro-4-methoxybenzyl)-1H-benzoyl[d][1,2,3]triazol-5-yl)-N-(2-methyl-2H-tetrazol-5-yl)pyrimidin-2-amine]"
16,< 0.1,"COCCN1C[C@H](c2ccc(F)cc2)[C@@H](n2nnc3cc(-c4ccnc(Nc5ccnn5C)n4)ccc32)C1 [Example 83, 4-(1-((3R,4S)-4-(4-fluorophenyl)-1-(2-methoxyethyl)pyrrolidin-3-yl)-1H-benzo[d][1,2,3]triazol-5-yl)-N-(1-methyl-1H-pyrazol-5-yl)pyrimidin-2-amine]"
17,< 0.1,"Cn1nccc1Nc1nccc(-c2ccc3c(c2)nnn3CC2CN(CC(F)(F)F)C2)n1 [Example 64, N-(1-methyl-1H-pyrazol-5-yl)-4-(1-((1-(2,2,2-trifluoroethyl)azetidin-3-yl)methyl)-1H-benzo[d][1,2,3]triazol-5-yl)pyrimidin-2-amine]"
18,< 0.1,"Cn1nccc1Nc1nccc(-c2ccc3c(c2)nnn3CC(C)(F)F)n1 [Example 31, 4-(1-(2,2-difluoropropyl)-1H-benzo[d][1,2,3]triazol-5-yl)-N-(1-methyl-1H-pyrazol-5-yl)pyrimidin-2-amine]"
19,< 0.1,"Cn1nccc1Nc1nccc(-c2ccc3c(c2)nnn3CC2CCCC2)n1 [Example 29, 4-(1-(cyclopentylmethyl)-1H-benzo[d][1,2,3]triazol-5-yl)-N-(1-methyl-1H-pyrazol-5-yl)pyrimidin-2-amine]"
20,< 0.1,"CN(C)CC(c1ccc(Cl)c(F)c1)n1nnc2cc(-c3ccnc(Nc4ccnn4C)n3)ccc21 (stereo not shown) [Example 91, 4-(1-(1-(4-chloro-3-fluorophenyl)-2-(dimethylamino)ethyl)-1H-benzo[d][1,2,3]triazol-5-yl)-N-(1-methyl-1H-pyrazol-5-yl)pyrimidin-2-amine]"
21,< 0.1,"Cn1nccc1Nc1nccc(-c2ccc3c(c2)nnn3CC2(c3ccc(OC(F)(F)F)cc3)CC2)n1 [Example 47, N-(1-methyl-1H-pyrazol-5-yl)-4-(1-((1-(4-(trifluoromethoxy)phenyl)cyclopropyl)methyl)-1H-benzo[d][1,2,3]triazol-5-yl)pyrimidin-2-amine]"
22,< 0.1,"Fc1ccc(Cn2nnc3cc(-c4ccnc(NC5CCOCC5)n4)ccc32)cc1 [Example 111, 4-(1-(4-fluorobenzyl)-1H-benzo[d][1,2,3]triazol-5-yl)-N-(tetrahydro-2H-pyran-4-yl)pyrimidin-2-amine]"
23,< 0.1,"COc1ccc(Cn2nnc3cc(-c4ccnc(Nc5ccnn5C)n4)ccc32)cc1 [Example 65, 4-(1-(4-methoxybenzyl)-1H-benzo[d][1,2,3]triazol-5-yl)-N-(1-methyl-1H-pyrazol-5-yl)pyrimidin-2-amine]"
24,< 0.1,"COc1cccc(F)c1CN1CCC[C@@H](n2nnc3cc(-c4ccnc(Nc5ccnn5C)n4)ccc32)C1 [Example 105, (R)-4-(1-(1-(2-fluoro-6-methoxybenzyl)piperidin-3-yl)-1H-benzo[d][1,2,3]triazol-5-yl)-N-(1-methyl-1H-pyrazol-5-yl)pyrimidin-2-amine]"
25,< 0.1,"COc1ccc(Cn2nnc3cc(-c4ccnc(Nc5nnnn5C)n4)ccc32)cc1F [Example 24, 4-(1-(3-fluoro-4-methoxybenzyl)-1H-benzo[d][1,2,3]triazol-5-yl)-N-(1-methyl-1H-tetrazol-5-yl)pyrimidin-2-amine]"
